Measured values: article PMC10126473 (Frontiers in Pharmacology, 2023)
Like-named read-outs stand apart in the source and are kept apart here.

Assays:
[1] = Plasma protein binding, equilibrium dialysis (RED device); type: in vitro ADME, human; conditions: read-out: Fup (unbound fraction in plasma)
Method: Plasma protein binding was determined with equilibrium dialysis method using the Rapid Equilibration Dialysis (RED) device (Thermo Fisher Catalog # 90006). The assay was performed using manufacturer’s procedures. Briefly, plasma spiked with a test compound (5 µM) was added to the plasma chamber of the RED device. Blank potassium phosphate buffer (100 mM) was added to the buffer chamber of the RED device and the plate was incubated at 37°C. Aliquots of the buffer and the plasma were taken at 0 and 4 h, and the concentrations of free and bound test compounds were determined using the previously described LC-MS method ([Shah et al., 2016]).

[2] = PBPK model (GastroPlus): simulation and model parameters incl. permeability surface product and scaled metabolic kinetics, hamster; conditions: for Liver Vmax / Plasma k: in vivo (scaled)
Method: CL in vitro,app expressed as mL/min/mg microsomes were scaled to the predicted CLintrinsic using scaling factor (SF), microsome level and liver weight as indicated below: CLintrinsic=CLin vitro,app×SF×liver weight×microsome level per gram liver
All modeling and simulation were carried out using GastroPlus version 9.5 (Simulations Plus Inc., CA). Physiochemical parameters including blood-to-plasma ratio (Rbp), pKa, and logP were predicted by ADMET predictor (Simulations Plus Inc., CA). Physiologies of all species, including organ weights, volumes, tissue compositions, and blood perfusion rates, were generated by the program’s internal module. Tissue intracellular unbound fractions were generated by GastroPlus based on predicted or experimentally determined physiochemical and chemical-biological parameters including pKa, logP, plasma unbound fractions (Fup), Rbp, solubility, and PAMPA permeability. The PBPK model structure is illustrated in Figure 2 and its parameters are summarized in Supplementary Tables S3–6. The default absorption and dissolution model was applied and effective intestine permeability was predicted by a built-in correlation from the experimental PAMPA permeability result. Parameters including partition coefficients in tissue (Kp), CLintrinsic, and permeability surface area product (PStc) were estimated by fitting the model to experimental data using the optimization module in GastroPlus with objective function weights at 1/(y + ŷ)^2, where y is the observed value and ŷ is the predicted value.
Experimental measurements of hamster plasma pharmacokinetics and lung concentrations were used in the model validation.

[3] = Metabolic stability and biotransformation in liver microsomes; conditions: for Liver Vmax: in vitro
Method: The incubation was carried out at 37°C for 15, 30, and 60 min. The reaction in plasma or liver microsomes was quenched by adding 200 μL of cold acetonitrile (containing 100 ng/mL tolbutamide as internal standard).
The mc was the microsome concentration used in the incubation (0.5 mg/mL). The substrate disappearance half-life (t1/2) was estimated by regression analysis of the semi-logarithmic (ln Conc vs. time) plots. […] The Vmax, in vitro,app, PDN-total and Km for PDN depletion in liver microsomes were estimated by the Michaelis-Menten model using GraphPad Prism version 8.

O=C(Nc1ccc([N+](=O)[O-])cc1Cl)c1cc(Cl)ccc1OC(=O)N1CCNCC1 [PDN]
fraction unbound at 4 h, 5 µM ([1]; human and rodent (rodent predicted), rodent (predicted) and human plasma): 0.12 to 0.15
fraction unbound at 4 h, 5 µM ([1]; human, human plasma, experimental): 0.152
Liver Vmax ([2]; conversion to Nc): 0.0130 mg/s/mg microsomes
Plasma k ([2]; conversion to Nc): 0.0052 s⁻¹
Gut Vmax ([2]; conversion to Nc, in vivo, predicted from in vitro liver parameters): 0.0004 mg/s/mg microsomes
Liver Vmax ([2]; conversion to Others): 0.1649 mg/s/mg microsomes
Plasma k ([2]; conversion to Others): 0.0189 s⁻¹
Liver Vmax ([3]; conversion to Nc, hamster): 0.0085 mg/s/mg microsomes
Gut Vmax ([3]; conversion to Nc, hamster, in vitro (in vitro liver parameters)): 0.0085 mg/s/mg microsomes
Liver Vmax ([3]; conversion to Others, hamster): 0.1059 mg/s/mg microsomes
Vmax in vitro,app, PDN-total ([3]; hamster liver microsomes): 1.238 ± 0.133 nmol/min/mg
Km ([3]; hamster, pH 7.4): 10.8 ± 3.04 µM
